The source of these data is article PMC10526447 (Biomolecules, 2023).

Read-outs that look alike come from different tables or passages of the source. Positions of bridges follow the written chain, without caps; N, C: chain ends. No end group written: not given here.

Assay [1] deals with Pseudotyped SARS-CoV-2 BA.1. The settings on record: Pseudotyped BA.1, 48 h.
For assay [2], the system named is Pseudotyped SARS-CoV-2 BA.2. The conditions noted are these: Pseudotyped BA.2, 48 h.
Assay [3] relates to Pseudotyped SARS-CoV-2 BA.2.12.1. The settings on record: Pseudotyped BA.2.12.1, 48 h.
For assay [4], the system named is Pseudotyped SARS-CoV-2 BA.2.75. The settings on record: Pseudotyped BA.2.75, 48 h.
Assay [5] concerns Pseudotyped SARS-CoV-2 BA.5. The conditions noted are these: Pseudotyped BA.5, 48 h.
Assay [6] has as its system Pseudotyped SARS-CoV-2 BF.7. The settings on record: Pseudotyped BF.7, 48 h.
Assay [7] concerns Pseudotyped SARS-CoV-2 BA.4.6. The settings on record: Pseudotyped BA.4.6, 48 h.
For assay [8], the system named is Pseudotyped SARS-CoV-2 XBB. The settings on record: 48 h.
Assay [9] relates to Pseudotyped SARS-CoV-2 BQ.1.1. The conditions noted are these: Pseudotyped BQ.1.1, 48 h.
The test system of assay [10] is live SARS-CoV-2 Delta variant (B.1.617.2). The conditions noted are these: live Delta variant (B.1.617.2, 2 h).
Assay [11] deals with Pseudotyped SARS-CoV-2 N501Y. The conditions noted are these: 48 h.
The subject of assay [12] is Pseudotyped SARS-CoV-2 B.1.1.7 (Alpha). The conditions noted are these: Pseudotyped B.1.1.7 (Alpha, 48 h).
Assay [13] concerns Pseudotyped SARS-CoV-2 B.1.351 (Beta). The conditions noted are these: Pseudotyped B.1.351 (Beta, 48 h).
The test system of assay [14] is Pseudotyped SARS-CoV-2 P.1 (Gamma). The conditions noted are these: Pseudotyped P.1 (Gamma, 48 h).
Assay [15] relates to Pseudotyped SARS-CoV-2 B.1.617.2 (Delta). The settings on record: Pseudotyped B.1.617.2 (Delta, 48 h).
Assay [16] deals with Pseudotyped SARS-CoV-2 C.37. The conditions noted are these: Pseudotyped C.37, 48 h.
Assay [17] concerns Pseudotyped SARS-CoV-2 N501Y. The conditions noted are these: 48 h. The source holds these as a separate data set.
Assay [18] concerns Pseudotyped SARS-CoV-2 B.1.1.7 (Alpha). The settings on record: Pseudotyped B.1.1.7 (Alpha, 48 h). This is another data set of the same source.
Assay [19] relates to Pseudotyped SARS-CoV-2 B.1.351 (Beta). The conditions noted are these: Pseudotyped B.1.351 (Beta, 48 h). The source holds these as a separate data set.
The subject of assay [20] is Pseudotyped SARS-CoV-2 P.1 (Gamma). The settings on record: Pseudotyped P.1 (Gamma, 48 h). The source holds these as a separate data set.
For assay [21], the system named is Pseudotyped SARS-CoV-2 B.1.617.2 (Delta). The settings on record: Pseudotyped B.1.617.2 (Delta, 48 h). This is another data set of the same source.
In assay [22] the test system is Pseudotyped SARS-CoV-2 C.37. The conditions noted are these: Pseudotyped C.37, 48 h. The source holds these as a separate data set.

A word on the IC50: it is the concentration that gives 50% inhibition. A low value points to greater potency in that assay.

For `CC[C@H](C)[C@H](NC(=O)[C@H](C)NC(=O)[C@H](CCC(=O)O)NC(=O)[C@H](CCC(=O)O)NC(=O)[C@H](CC(C)C)NC(=O)[C@H](CCCCN)NC(=O)[C@H](CCCCN)NC(=O)[C@H](CCSC)NC(=O)[C@H](CCC(=O)O)NC(=O)[C@H](Cc1ccc(O)cc1)NC(=O)[C@H](CCC(=O)O)NC(=O)[C@H](CC(C)C)NC(=O)[C@H](CC(=O)O)NC(=O)[C@H](CC(C)C)NC(=O)[C@H](Cc1ccccc1)NC(=O)[C@@H](NC(=O)[C@@H](NC(=O)[C@H](CC(N)=O)NC(=O)[C@@H](NC(=O)[C@H](CCC(N)=O)NC(=O)[C@H](CC(=O)O)NC(=O)[C@H](CC(C)C)NC(=O)[C@@H](N)CO)[C@@H](C)CC)C(C)C)[C@@H](C)O)C(=O)N[C@@H](CCCCN)C(=O)N[C@@H](CCCCN)C(=O)N[C@@H](CC(C)C)C(=O)N[C@@H](CCC(=O)O)C(=O)N[C@@H](CCC(=O)O)C(=O)N[C@@H](CO)C(=O)N[C@@H](Cc1ccc(O)cc1)C(=O)N[C@H](C(=O)N[C@@H](CC(=O)O)C(=O)N[C@@H](CC(C)C)C(=O)N[C@@H](CCCCN)C(=O)N[C@@H](CCC(=O)O)C(=O)N[C@@H](CC(C)C)C(=O)O)[C@@H](C)CC` [EK1], the IC50 worked out at 334 nM in assay [1]; 544 nM in assay [2]; 592 nM in assay [3]; 248 nM in assay [4]; 690 nM in assay [5]; 260 nM in assay [6]. Also, the IC50 was found to be 201 nM in assay [7], 366 nM in assay [8], 378 nM in [9] and 296 nM in [10].

For the molecule `CC(C)C[C@@H]1NC(=O)[C@H](Cc2c[nH]cn2)NC(=O)[C@H](Cc2c[nH]c3ccccc23)NC(=O)[C@H](C)NC(=O)[C@@H](NC(=O)[C@@H](N)CC(=O)O)CSSC[C@@H](C(=O)N[C@H](C(=O)O)[C@@H](C)O)NC(=O)[C@H](Cc2c[nH]c3ccccc23)NC(=O)[C@H](C(C)C)NC(=O)[C@H](CC(C)C)NC(=O)[C@H](CCC(=O)O)NC(=O)CNC1=O` [IBP], the IC50 in assay [11], in assay [12], in assay [13], in [14], in assay [15] and in assay [16] was more than 50000 nM each time. The IC50 in assay [1], in [2], in [3], in [4], in assay [5] and in assay [6] was more than 50000 nM each time. Moreover, the IC50 in [7], in [8], in assay [9], in assay [17], in assay [18] and in [19] was more than 50000 nM in each case. The IC50 in [20], in [21], in assay [22] and in assay [10] was more than 50000 nM each time.

Regarding “DCAWHLGELVWCTSLDQINVTFLDLEYEMKKLEEAIKKLEESYIDLKEL (disulfide 2-12) [IBP-EK1]”, the IC50 in [1] came out at 301 nM; in assay [2], 399 nM; in assay [3], 527 nM; in assay [4], 221 nM; in [5], 564 nM; in assay [6], 257 nM. Also, the IC50 in assay [7] stood at 195 nM; in [8], 330 nM; in assay [9], 342 nM; in assay [10], 204 nM.
